# Assay results reported in patent US7955808B2, “Bitter taste receptors” (Deutsches Institut für Ernährungsorschung, Stiftung des …, priority 2002, dated 2011).
# Experiments:
# [1] = target: T1, hTAS2R48 (Homo sapiens, UniProt P59542); assay: FLIPR assay, heterologous expression of hTAS2R48; type: cell-based
# T1 construct: gene-specific primers that span the complete coding region of the individual hTAS2R genes; first 45 amino acids of rat somatostatin type 3 receptor (cell surface-targeting signal) (N); expressed in transfected cells; host or cells: HEK-293T-Gα16gustducin44 cells (alternatively HEK-293 co-transfected with phospholipase-Cβ2 and α-gustducin)
# T1 sequence (P59542 1-299): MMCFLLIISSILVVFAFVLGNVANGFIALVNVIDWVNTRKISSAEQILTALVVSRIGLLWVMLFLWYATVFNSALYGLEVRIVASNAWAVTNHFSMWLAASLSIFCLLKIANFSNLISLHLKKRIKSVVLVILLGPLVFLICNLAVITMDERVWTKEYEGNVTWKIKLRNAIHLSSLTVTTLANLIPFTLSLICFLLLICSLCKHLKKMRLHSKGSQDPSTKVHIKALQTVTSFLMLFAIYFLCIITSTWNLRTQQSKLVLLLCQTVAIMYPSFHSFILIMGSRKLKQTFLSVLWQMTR
# Text: (§1) Transient transfection of TAS2Rs into HEK-293T-Gα16gustducin44 cells.
# [2] = target: T2, hTAS2R10 (Homo sapiens, UniProt Q9NYW0, T156M); assay: FLIPR assay, heterologous expression of hTAS2R10; type: cell-based; details: hTAS2R10
# T2 construct: gene-specific primers that span the complete coding region of the individual hTAS2R genes; first 45 amino acids of rat somatostatin type 3 receptor (cell surface-targeting signal) (N); expressed in transfected cells; host or cells: HEK-293T-Gα16gustducin44 cells (alternatively HEK-293 co-transfected with phospholipase-Cβ2 and α-gustducin)
# T2 sequence (Q9NYW0 1-307 T156M): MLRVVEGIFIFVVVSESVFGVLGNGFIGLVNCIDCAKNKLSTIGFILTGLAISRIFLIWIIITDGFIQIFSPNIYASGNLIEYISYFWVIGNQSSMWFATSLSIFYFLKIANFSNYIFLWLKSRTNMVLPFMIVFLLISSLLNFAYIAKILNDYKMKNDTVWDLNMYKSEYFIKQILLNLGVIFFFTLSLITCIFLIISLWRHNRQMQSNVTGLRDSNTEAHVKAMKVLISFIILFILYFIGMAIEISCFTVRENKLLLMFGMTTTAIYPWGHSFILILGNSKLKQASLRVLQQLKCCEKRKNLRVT
# Text: as §1
# [3] = target: T3, hTAS2R45 (Homo sapiens, UniProt P59539); assay: FLIPR assay, heterologous expression of hTAS2R45; type: cell-based
# T3 construct: gene-specific primers that span the complete coding region of the individual hTAS2R genes; first 45 amino acids of rat somatostatin type 3 receptor (cell surface-targeting signal) (N); expressed in transfected cells; host or cells: HEK-293T-Gα16gustducin44 cells (alternatively HEK-293 co-transfected with phospholipase-Cβ2 and α-gustducin)
# T3 sequence (P59539 1-299): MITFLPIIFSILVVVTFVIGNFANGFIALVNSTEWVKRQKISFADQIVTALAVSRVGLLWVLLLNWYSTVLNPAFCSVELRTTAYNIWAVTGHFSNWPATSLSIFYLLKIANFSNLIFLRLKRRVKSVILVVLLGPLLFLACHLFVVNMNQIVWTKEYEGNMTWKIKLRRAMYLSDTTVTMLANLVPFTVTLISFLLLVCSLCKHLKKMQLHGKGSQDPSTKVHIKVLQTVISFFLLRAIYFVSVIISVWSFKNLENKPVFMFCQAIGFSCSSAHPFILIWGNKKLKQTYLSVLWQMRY
# Text: as §1
# [4] = target: T4, hTAS2R46 (Homo sapiens, UniProt P59540); assay: FLIPR assay, heterologous expression of hTAS2R46; type: cell-based
# T4 construct: gene-specific primers that span the complete coding region of the individual hTAS2R genes; first 45 amino acids of rat somatostatin type 3 receptor (cell surface-targeting signal) (N); expressed in transfected cells; host or cells: HEK-293T-Gα16gustducin44 cells (alternatively HEK-293 co-transfected with phospholipase-Cβ2 and α-gustducin)
# T4 sequence (P59540 with tags, fused parts or gaps limits assumed): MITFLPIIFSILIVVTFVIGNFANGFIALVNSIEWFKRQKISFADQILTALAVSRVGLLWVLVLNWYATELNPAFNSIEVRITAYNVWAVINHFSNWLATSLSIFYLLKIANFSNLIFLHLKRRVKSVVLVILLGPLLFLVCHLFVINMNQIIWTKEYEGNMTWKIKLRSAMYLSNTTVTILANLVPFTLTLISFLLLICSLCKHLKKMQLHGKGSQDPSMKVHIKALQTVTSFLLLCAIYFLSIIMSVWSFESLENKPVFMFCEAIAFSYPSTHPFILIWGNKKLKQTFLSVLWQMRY
# Text: as §1
# [5] = target: hTAS2R43 (Homo sapiens, UniProt P59537, H212R/W35S)
# Text: (§2) These cells stably express a chimeric G protein constructed from human Gα16 and rat gustducin. Finally, we seeded the transfected cells at a density of 3×10^3 cells per well into 96-well black-wall, clear-bottom microtiter plates (Greiner).
# (§3) Co-transfection of TAS2Rs with gustducin and phospholipase-Cβ2 into HEK-293 cells. Alternatively, we transfected simultaneously plasmid DNAs encoding one of the TAS2Rs, phospholipase-Cβ2 and α-gustducin into HEK-293 cells using the lipofectamine method. […] Thereafter, the transfected cells were seeded at a density of 3×10^3 cells per well into 96-well black-wall, clear-bottom microtiter plates (Greiner).
# (§4) Thereafter, cells were gently washed in HBS by an automated plate washer (Denley Cellwash, Labsystenms) and transferred to the FLIPR (Molecular Devices). The FLIPR integrates an argon laser excitation source, a 96-well pipettor, and a detection system utilizing a Charged Coupled Device imaging camera. […] Fluorescence data were collected 1 min before and 10 min after stimulation. Data were collected every 6 s before and every 1 s after agonist stimulation. 50 μl of 3× concentrated agonists were delivered within 2 by the integrated 96-well pipettor to the wells containing 100 μl HBS. Agonist responses were quantified using the amplitudes of the fluorescence peaks. We averaged the responses of five wells containing cells expressing the same receptor and that received the same stimulus. Calcium traces were determined in triplicate of mock-transfected cells stimulated with the same concentration of tastant.
# [6] = target: hTAS2R44 (Homo sapiens, UniProt P59538, L162M)
# Text: as §2, §3, §4
# Chain of hTAS2R44 (P59538 whole entry L162M): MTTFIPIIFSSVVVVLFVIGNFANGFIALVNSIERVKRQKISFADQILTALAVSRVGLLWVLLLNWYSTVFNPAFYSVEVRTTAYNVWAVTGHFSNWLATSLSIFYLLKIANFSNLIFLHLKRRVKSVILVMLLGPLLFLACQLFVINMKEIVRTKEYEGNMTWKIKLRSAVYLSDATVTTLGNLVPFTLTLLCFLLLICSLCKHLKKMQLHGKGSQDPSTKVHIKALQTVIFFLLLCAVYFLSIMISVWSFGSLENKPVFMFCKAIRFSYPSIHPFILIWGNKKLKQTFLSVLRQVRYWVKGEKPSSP
# Chain of hTAS2R43 (P59537 whole entry W35S/H212R): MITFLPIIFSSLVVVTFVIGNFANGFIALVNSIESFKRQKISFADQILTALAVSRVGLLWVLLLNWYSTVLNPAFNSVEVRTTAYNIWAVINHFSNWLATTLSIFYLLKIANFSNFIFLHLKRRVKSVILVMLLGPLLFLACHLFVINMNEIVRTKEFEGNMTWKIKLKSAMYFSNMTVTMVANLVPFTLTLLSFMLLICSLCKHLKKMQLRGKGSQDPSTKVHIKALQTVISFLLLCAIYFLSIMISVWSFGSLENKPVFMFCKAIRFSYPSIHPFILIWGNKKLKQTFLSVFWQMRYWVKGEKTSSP
Compound,Approx. Threshold [1],receptor activation (in words) [1],Approx. Threshold [2],receptor activation (in words) [2],Approx. Threshold [3],receptor activation (in words) [3],Approx. Threshold [4],receptor activation (in words) [4],Approx. Threshold [5],Approx. Threshold [6],receptor activation (in words) [6]
CC1=C[C@@H]2[C@@H]3C4C(=C(C)[C@@H]3[C@@]13[C@@H]2[C@@](C)(O)CC[C@H]1[C@H](C)C(=O)O[C@@H]13)[C@H]1OC(=O)[C@@H](C)[C@@H]1CC[C@]4(C)O (some centres unmarked) [Absinthine],0.03 mM,activated,0.01 mM,activated,0.003 mM,activated,0.001 mM,activated,–,–,–
CC1=CC(=O)NS(=O)(=O)O1 [Acesulfame K],–,–,–,–,–,–,–,–,No response up to 10 mM,0.5 mM,activated
